Measurements published in paper PMC11662004 (Communications Chemistry, 2024).
pIC50: −log10 of the molar value. Values joined by “and” are separate entries in the source; they are usually repeats but may differ in a detail not shown here. Equal values may be shown once.

Experiments:
NgTet1 [1] = target: T1, NgTet1 (Naegleria gruberi, UniProt D2W6T1); assay: AlphaScreen competition assay with biotinylated 5mC dsDNA; type: binding; details: 100 nM NgTet1, 50 nM 5mC dsDNA
T1 construct: His6-tagged full-length Naegleria gruberi NgTet1 (321 a. a.) protein with a thrombin cleavage site; made in house; host or cells: E. coli BL21(DE3)
T1 sequence (D2W6T1 1-321): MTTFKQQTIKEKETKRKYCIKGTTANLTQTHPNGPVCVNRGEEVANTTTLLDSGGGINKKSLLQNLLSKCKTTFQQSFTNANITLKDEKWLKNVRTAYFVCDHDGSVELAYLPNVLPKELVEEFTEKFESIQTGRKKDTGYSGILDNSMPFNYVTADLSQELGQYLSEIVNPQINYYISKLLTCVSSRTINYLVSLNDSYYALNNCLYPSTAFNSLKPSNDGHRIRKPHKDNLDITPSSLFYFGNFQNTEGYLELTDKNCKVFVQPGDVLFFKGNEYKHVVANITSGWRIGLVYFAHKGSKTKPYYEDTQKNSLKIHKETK
Protocol: (§1) AlphaScreen™ Histidine (Nickel Chelate) Detection Kit was used to evaluate displacement of […] (^5mC dsDNA)[33],[34]. Competitor DNA oligomers in assay buffer were manually dispensed onto 384-well ProxiPlates (5 μL) in a 2-fold dilution series. His6-tagged NgTet1 or TET2CDΔLCI in assay buffer was added (5 μL), and the mixture was pre-incubated with the competitor DNA at room temperature for 10 min. Cofactors and biotinylated ^5mC dsDNA in assay buffer were added (5 μL), and the mixture was further incubated at room temperature for 10 min. A mixture of AlphaScreen beads (1:62.5 dilution) in assay buffer was added (5 μL), and the full mixture was incubated at room temperature for 1 h. The final mixtures (20 μL) contained 100 nM NgTet1 (50 nM ^5mC dsDNA) or 12.5 nM TET2CDΔLCI (12.5 nM ^5mC dsDNA), 50 μM sodium L-ascorbate, 5 μM (NH4)2Fe(SO4)2, and 5 μM disodium NOG in assay buffer (50 mM HEPES [pH 7.3], 150 mM NaCl, 0.1% v/v BSA, 0.01% v/v Tween® 20). For the assay interference counter screen, His6-tagged TET protein and biotinylated ^5mC dsDNA were replaced with 1.6 nM biotinylated His6 peptide. Chemiluminescence was measured on a PHERAstar FS/FSX (BMG Labtech) equipped with an AlphaScreen 680 570 module. All AlphaScreen bead manipulations were performed under subdued lighting. Inhibition data was normalised to reactions containing no competitor and fitted using “log(inhibitor) vs. response - Variable slope (four parameters)” non-linear regression model on GraphPad Prism 5. […]
(§2) Fig. S5 TETs bind to DNA in a sequence- and modification-independent manner. A binding assay between a biotinylated 5mC dsDNA oligomer and His6-tagged TET was developed using AlphaScreen Histidine (Nickel Chelate) assay. […] Conditions: a 100 nM NgTet1 (50 nM 5mC dsDNA), b 12.5 nM TET2CDΔLCI (12.5 nM 5mC dsDNA), c 1.6 nM biotinylated His6 peptide. Each assay was supplemented with 50 μM sodium L-ascorbate, 5 μM (NH4)2Fe(SO4)2, and 5 μM disodium NOG. Data shown as the mean of three to four experimental replicates (n = 3–4; mean ± SD); tabulated data reported as the mean of two independent replicates (n = 2).

TET2CDΔLCI = target: T2, TET2CDΔLCI (Homo sapiens, UniProt Q6N021); assay: as above; type: binding; details: 12.5 nM TET2CDΔLCI, 12.5 nM 5mC dsDNA
T2 construct: FLAG-[thrombin cleavage site]-SUMO (N); made in house; host or cells: E. coli
Protocol: as §1, §2

NgTet1 [2] = target: T1, NgTet1; assay: biochemical; details: for pIC50: 5 μM NgTet1, 50 μM 2OG; for normalised activity, %: NMR
Protocol: Activity was normalised against reactions containing vehicle (DMSO). […] AS data shown as the mean of three experimental replicates (n = 3; mean ± SD); ^1H NMR data plotted from two independent replicates (n = 2); tabulated data reported as the mean of two and three independent replicates for ^1H NMR and AS, respectively (n = 2–3, SD reported for n = 3). N. d.: not determined; AS: AlphaScreen.
All ^1H NMR spectra were recorded at 25 °C using D2O as a reference for internal deuterium lock on a Bruker Avance III 700 MHz equipped with an inverse TCI cryoprobe in 3 or 5 mm diameter tubes with a total sample volume of 160 or 565 μL, respectively. The water signal was reduced using Perfect Echo excitation sculpting suppression. Chemical shifts are reported in ppm relative to D2O (δH = 4.70 ppm).
NgTet1 was pre-incubated with inhibitor dilution series in DMSO-d6 at room temperature for 10 min (50 mM Tris-d11 [pH 7.5], 2% v/v DMSO-d6). Reactions were initiated by the addition of appropriate cofactors and DNA. […] The reactions were quenched by the addition of 9 mM NOG and 9 mM ZnCl2 in 90 mM Tris-d11 [pH 7.5] (20 μL) within the enzyme linear activity window (determined in Figure. S10). Samples were transferred to NMR tubes and subjected to ^1H NMR analysis. Data were processed as described above. Inhibition data was normalised to reactions containing vehicle only (1% v/v DMSO-d6) and fitted using “log(inhibitor) vs. response - Variable slope (four parameters)” non-linear regression model on GraphPad Prism 5.
Activity was normalised against reactions containing vehicle only (100% activity). Data is shown as the mean of 2 independent replicates (n = 2; […]
Fig. S10 Determination of linear NgTet1 enzymatic activity windows for inhibitor characterisation. a 1H NMR succinate detection time courses with no DNA, 5HC DNA (double- […]
complementary 5'-ACC AC5mC GGT GGT-3'). b AlphaScreen 5hmC detection time course using […]
courses shown. 1H NMR reaction conditions: 5 μM NgTet1, 2 mM sodium L-ascorbate, 100 μM […]
v/v D2O. DNA was added to a final concentration of 20 μM of double-stranded DNA. […]

## AT DNA: double-stranded self-complementary 5'-ACC ACA TGT GGT-3', CpG replaced by ApT (DNA ACCACATGTGGT; DNA, backbone and methylation of C not given here; self-complementary duplex)
NgTet1 [1]
  pIC50: 4.25
NgTet1 [1]; n = 2
  competition pIC50 NgTet1: 4.25
TET2CDΔLCI
  pIC50: 5.34
TET2CDΔLCI; n = 2
  competition pIC50 TET2CDΔLCI: 5.34

## O=C(O)CNC(=O)C(=O)O [NOG, N-oxalylglycine]
NgTet1 [2]; 1H NMR, uncoupled 2OG turnover
  potency reduced in the presence of non-substrate 5HC DNA: 5 fold
NgTet1 [2]; 2OG decarboxylation with 20 µM 5HC DNA, read-out: IC50, 5HC DNA, NMR
  pIC50: 4.63
NgTet1 [2]; 2OG decarboxylation with 20 µM 5mC DNA, read-out: IC50, 5mC DNA, NMR
  pIC50: 5.31
NgTet1 [2]; 5HC DNA, -Log[inhibitor] (M) 3
  normalised activity, %: 9.08% and 0%
NgTet1 [2]; 5HC DNA, -Log[inhibitor] (M) 3.5
  normalised activity, %: 14.96% and 8.89%
NgTet1 [2]; 5HC DNA, -Log[inhibitor] (M) 4
  normalised activity, %: 27.44% and 19.98%
NgTet1 [2]; 5HC DNA, -Log[inhibitor] (M) 4.5
  normalised activity, %: 46.19% and 37.58%
NgTet1 [2]; 5HC DNA, -Log[inhibitor] (M) 5
  normalised activity, %: 68.86% and 59.35%
NgTet1 [2]; 5HC DNA, -Log[inhibitor] (M) 5.5
  normalised activity, %: 85.6% and 77.94%
NgTet1 [2]; 5HC DNA, -Log[inhibitor] (M) 6
  normalised activity, %: 94.01% and 91.73%
NgTet1 [2]; 5HC DNA, -Log[inhibitor] (M) 6.5
  normalised activity, %: 98.78% and 94.75%
NgTet1 [2]; 5HC DNA, -Log[inhibitor] (M) 7
  normalised activity, %: 98.78% and 99.12%
NgTet1 [2]; 5HC DNA, -Log[inhibitor] (M) 7.5
  normalised activity, %: 97.21% and 98.4%
NgTet1 [2]; 5mC DNA substrate-saturating conditions, 1H NMR
  potency improved relative to AS assay: 40 fold
NgTet1 [2]; 5mC DNA, -Log[inhibitor] (M) 2.47712
  normalised activity, %: 3.86% and 2.962%
NgTet1 [2]; 5mC DNA, -Log[inhibitor] (M) 2.95424
  normalised activity, %: 3.763% and 4.321%
NgTet1 [2]; 5mC DNA, -Log[inhibitor] (M) 3.43136
  normalised activity, %: 5.679% and 6.122%
NgTet1 [2]; 5mC DNA, -Log[inhibitor] (M) 3.90849
  normalised activity, %: 9.059% and 9.958%
NgTet1 [2]; 5mC DNA, -Log[inhibitor] (M) 4.38561
  normalised activity, %: 18.3792% and 18.5451%
NgTet1 [2]; 5mC DNA, -Log[inhibitor] (M) 4.86273
  normalised activity, %: 32.2896% and 33.1008%
NgTet1 [2]; 5mC DNA, -Log[inhibitor] (M) 5.33985
  normalised activity, %: 53.2739% and 54.7766%
NgTet1 [2]; 5mC DNA, -Log[inhibitor] (M) 5.81697
  normalised activity, %: 75.7036% and 73.0834%
NgTet1 [2]; 5mC DNA, -Log[inhibitor] (M) 6.29409
  normalised activity, %: 86.8413% and 87.2847%
NgTet1 [2]; 5mC DNA, -Log[inhibitor] (M) 6.77
  normalised activity, %: 92.8024% and 96.8118%
NgTet1 [2]; 5mC DNA, -Log[inhibitor] (M) 7.25
  normalised activity, %: 100.282% and 100.776%
NgTet1 [2]; 5mC DNA, -Log[inhibitor] (M) 7.73
  normalised activity, %: 99.5779% and 101.189%
NgTet1 [2]; No DNA, -Log[inhibitor] (M) 2
  normalised activity, %: 1.894% and 2.62%
NgTet1 [2]; No DNA, -Log[inhibitor] (M) 2.47712
  normalised activity, %: 5.905% and 12.6681%
NgTet1 [2]; No DNA, -Log[inhibitor] (M) 3.43136
  normalised activity, %: 23.7146% and 37.124%
NgTet1 [2]; No DNA, -Log[inhibitor] (M) 3.90849
  normalised activity, %: 40.5302% and 59.4882%
NgTet1 [2]; No DNA, -Log[inhibitor] (M) 4.38561
  normalised activity, %: 74.4281% and 76.6397%
NgTet1 [2]; No DNA, -Log[inhibitor] (M) 4.86273
  normalised activity, %: 97.4209% and 83.0858%
NgTet1 [2]; No DNA, -Log[inhibitor] (M) 5.33985
  normalised activity, %: 104.499% and 99.5811%
NgTet1 [2]; No DNA, -Log[inhibitor] (M) 5.81697
  normalised activity, %: 103.384% and 101.173%
NgTet1 [2]; No DNA, -Log[inhibitor] (M) 6.29409
  normalised activity, %: 102.321% and 96.0908%
NgTet1 [2]; uncoupled 2OG decarboxylation, no DNA, read-out: IC50, No DNA, NMR
  pIC50: 3.93
